These results are taken from US9499466B2, “Diene-based carboxylate anion and salt thereof, and polymerizable or curable composition thereof” (NIPPON SHOKUBAI CO., LTD., priority 2010, dated 2016).

The nature of series [1]: Solubility test (dissolution method). The settings on record: for Solubility (dissolution method) Water: mixed at 1%, 3%, 5%, 10%, 20% or more. The source says:
The solubility evaluation by the dissolution method requires complicated operations and a large amount of test sample. Therefore, this test is not suitable for screening. However, the solubility of each compound can be more accurately evaluated.

The nature of series [2]: Solubility test (film-forming method). The settings on record: for Solubility (film-forming method) Water: solvent dropped on film on glass plate. Here is the method: Each compound was applied on a glass plate and the glass plate was leaned against the wall. Each solvent shown in Table 5 was dropped (5 to 6 drops) on the glass plate with a pasteur pipette. The glass plate was visually observed after the dropped solvent was dried, the surface was optionally rubbed with a spatula, and the solubility (film-forming method) was evaluated according to the criteria shown in Table 4.

Series [3] can be described thus: Adhesion of cured material to PET film (cross-cut method, JIS K 5600-5-6). The settings on record: UV-cured film on surface-untreated PET film, cross-cut 10×10. Here is the method:
Each compound shown in Table 11 was formed into a UV-cured film on a PET film in the same manner as in the pencil hardness test, except that the PET film used as a substrate was a surface-untreated polyethylene terephthalate (PET) film (Lumirror L-50T60, produced by Toray Industries, Inc.).
The adhesion of the UV-cured film to the PET film was evaluated based on JIS K 5600-5-6 (cross-cut method). The number of divided segments was 10×10 segments=100 segments. The adhesion was evaluated by the number of the segments which remain without peeling or damage in 100 segments.

`C=C(C)C(=O)[O-].C=CCOCC(=C)C(=O)[O-].[CH3][Sn+2][CH3]` [(CH3)2Sn(AMA)1(MAA)1]: the “Solubility (dissolution method) Toluene” value in series [1] was “◯◯ (Become uniform and transparent at a compound concentration of 20% or more)”.

As for `C=CCOCC(=C)C(=O)[O-].C=CCOCC(=C)C(=O)[O-].[CH3][Sn+2][CH3]` [(CH3)2Sn(AMA)2], the “Solubility (dissolution method) Toluene” value in series [1] was “◯◯ (Become uniform and transparent at a compound concentration of 20% or more)”.

As to `C=CCOCC(=C)C(=O)[O-].C=CCOCC(=C)C(=O)[O-].CC(C)[O][Ti+2][O]C(C)C` [(i-C3H7O)2Ti(AMA)2], in series [2], the “Solubility (film-forming method) Acetone” value is “X-Δ”, the “Solubility (film-forming method) Acetonitrile” value was “X-Δ”, the “Solubility (film-forming method) Ethyl acetate” value is “X-Δ” and the “Solubility (film-forming method) Methanol” value was “X-Δ”. In addition, in series [2], the “Solubility (film-forming method) THF” value is reported as “X-Δ” and the “Solubility (film-forming method) Toluene” value was “X-Δ”. Moreover, in series [1], the “Solubility (dissolution method) Acetone” value is “◯◯ (Become uniform and transparent at a compound concentration of 20% or more)”; the “Solubility (dissolution method) Acetonitrile” value was “◯◯ (Become uniform and transparent at a compound concentration of 20% or more)”; the “Solubility (dissolution method) Ethyl acetate” value was “◯◯ (Become uniform and transparent at a compound concentration of 20% or more)”; the “Solubility (dissolution method) Methanol” value was “◯◯ (Become uniform and transparent at a compound concentration of 20% or more)”. In addition, in series [1], the “Solubility (dissolution method) THF” value was “◯◯ (Become uniform and transparent at a compound concentration of 20% or more)”; the “Solubility (dissolution method) Toluene” value was “◯◯ (Become uniform and transparent at a compound concentration of 20% or more)”; the “Solubility (dissolution method) Water” value was “X (Not become uniform and transparent even at a compound concentration of 1%)”.

Take `C=CCOCC(=C)C(=O)[O-].C=CCOCC(=C)C(=O)[O-].CCC[O][Zr+2][O]CCC` [(n-C3H7O)2Zr(AMA)2]: in series [2], the “Solubility (film-forming method) Acetone” value was “X-Δ”, the “Solubility (film-forming method) Acetonitrile” value was “X-Δ”, the “Solubility (film-forming method) Ethyl acetate” value is “X-Δ” and the “Solubility (film-forming method) Methanol” value is “X-Δ”. Also, in series [2], the “Solubility (film-forming method) THF” value is reported as “X-Δ” and the “Solubility (film-forming method) Toluene” value was “X-Δ”. In series [1], the “Solubility (dissolution method) Acetone” value was “◯◯ (Become uniform and transparent at a compound concentration of 20% or more)”; the “Solubility (dissolution method) Acetonitrile” value was “X (Not become uniform and transparent even at a compound concentration of 1%)”; the “Solubility (dissolution method) Ethyl acetate” value was “◯ (Become uniform and transparent at a compound concentration of 10%)”; the “Solubility (dissolution method) Methanol” value was “X (Not become uniform and transparent even at a compound concentration of 1%)”. Besides, in series [1], the “Solubility (dissolution method) THF” value was “◯◯ (Become uniform and transparent at a compound concentration of 20% or more)”; the “Solubility (dissolution method) Toluene” value is “◯◯ (Become uniform and transparent at a compound concentration of 20% or more)”; the “Solubility (dissolution method) Water” value was “X (Not become uniform and transparent even at a compound concentration of 1%)”.

Turning to `C=CCOCC(=C)C(=O)[O-].C=CCOCC(=C)C(=O)[O-].C=CCOCC(=C)C(=O)[O-].[Al+3]` [Al(AMA)3], the “Adhesion (segments remaining without peeling or damage in 100 segments)” value in series [3] is reported as 100/100.

Turning to `C=CCOCC(=C)C(=O)[O-].C=CCOCC(=C)C(=O)[O-].C=CCOCC(=C)C(=O)[O-].[Au+3]` [Au(AMA)3], the “Solubility (film-forming method) Toluene” value in series [2] is recorded as “X-Δ”.

In the case of `C=CCOCC(=C)C(=O)[O-].C=CCOCC(=C)C(=O)[O-].C=CCOCC(=C)C(=O)[O-].[Bi+3]` [Bi(AMA)3], the “Solubility (film-forming method) Water” value in series [2] is given as “X-Δ”.

In the case of `C=CCOCC(=C)C(=O)[O-].C=CCOCC(=C)C(=O)[O-].[Co+2]` [Co(AMA)2], in series [2], the “Solubility (film-forming method) Acetonitrile” value is “X-Δ” and the “Solubility (film-forming method) Methanol” value is recorded as “X-Δ”. Besides, the “Solubility (dissolution method) Toluene” value in series [1] is “◯◯ (Become uniform and transparent at a compound concentration of 20% or more)”.

As to `C=CCOCC(=C)C(=O)[O-].C=CCOCC(=C)C(=O)[O-].C=CCOCC(=C)C(=O)[O-].[Cr+3]` [Cr(AMA)3], the “Solubility (film-forming method) Methanol” value in series [2] was “X-Δ”. Also, the “Solubility (dissolution method) Toluene” value in series [1] is “◯◯ (Become uniform and transparent at a compound concentration of 20% or more)”.

Take `C=CCOCC(=C)C(=O)[O-].C=CCOCC(=C)C(=O)[O-].[Cu+2]` [Cu(AMA)2]: in series [1], the “Solubility (dissolution method) THF” value was “◯◯ (Become uniform and transparent at a compound concentration of 20% or more)”.

Consider `C=CCOCC(=C)C(=O)OCCOCCOC(=O)C(=C)COCC=C` [DEG-AMA, diethylene glycol di(α-allyloxymethyl acrylate), reference compound], for which, in series [3], the “Adhesion (segments remaining without peeling or damage in 100 segments)” value is reported as 85/100. In series [1], the “Solubility (dissolution method) Acetone” value is “◯◯ (Become uniform and transparent at a compound concentration of 20% or more)”; the “Solubility (dissolution method) Acetonitrile” value is “◯◯ (Become uniform and transparent at a compound concentration of 20% or more)”; the “Solubility (dissolution method) Ethyl acetate” value is “◯◯ (Become uniform and transparent at a compound concentration of 20% or more)”; the “Solubility (dissolution method) Methanol” value was “◯◯ (Become uniform and transparent at a compound concentration of 20% or more)”. Moreover, in series [1], the “Solubility (dissolution method) THF” value is “◯◯ (Become uniform and transparent at a compound concentration of 20% or more)”; the “Solubility (dissolution method) Toluene” value was “◯◯ (Become uniform and transparent at a compound concentration of 20% or more)”; the “Solubility (dissolution method) Water” value is “X (Not become uniform and transparent even at a compound concentration of 1%)”.

For `C=CC(=O)OCCOCCOC(=O)C=C` [DEGDA, reference compound], the “Adhesion (segments remaining without peeling or damage in 100 segments)” value in series [3] is 32/100. Also, in series [1], the “Solubility (dissolution method) Acetone” value is “◯◯ (Become uniform and transparent at a compound concentration of 20% or more)”; the “Solubility (dissolution method) Acetonitrile” value was “◯◯ (Become uniform and transparent at a compound concentration of 20% or more)”; the “Solubility (dissolution method) Ethyl acetate” value was “◯◯ (Become uniform and transparent at a compound concentration of 20% or more)”; the “Solubility (dissolution method) Methanol” value is “◯◯ (Become uniform and transparent at a compound concentration of 20% or more)”. In addition, in series [1], the “Solubility (dissolution method) THF” value is “◯◯ (Become uniform and transparent at a compound concentration of 20% or more)”; the “Solubility (dissolution method) Toluene” value is “◯◯ (Become uniform and transparent at a compound concentration of 20% or more)”; the “Solubility (dissolution method) Water” value was “X-Δ (Become uniform and transparent at a compound concentration of 1%)”.

For the compound `C=CCOCC(=C)C(=O)[O-].C=CCOCC(=C)C(=O)[O-].C=CCOCC(=C)C(=O)[O-].[Er+3]` [Er(AMA)3], the “Solubility (film-forming method) Water” value in series [2] is reported as “X-Δ”. In addition, in series [1], the “Solubility (dissolution method) THF” value is “◯◯ (Become uniform and transparent at a compound concentration of 20% or more)”; the “Solubility (dissolution method) Toluene” value is “◯ (Become uniform and transparent at a compound concentration of 10%)”.

As to `C=CCOCC(=C)C(=O)[O-].C=CCOCC(=C)C(=O)[O-].C=CCOCC(=C)C(=O)[O-].[Eu+3]` [Eu(AMA)3], in series [1], the “Solubility (dissolution method) THF” value was “◯◯ (Become uniform and transparent at a compound concentration of 20% or more)”; the “Solubility (dissolution method) Toluene” value was “◯ (Become uniform and transparent at a compound concentration of 10%)”.

`C=CCOCC(=C)C(=O)[O-].C=CCOCC(=C)C(=O)[O-].C=CCOCC(=C)C(=O)[O-].[Fe+3]` [Fe(AMA)3]: the “Solubility (film-forming method) Water” value in series [2] is on record as “X-Δ”. Besides, the “Solubility (dissolution method) Toluene” value in series [1] was “◯◯ (Become uniform and transparent at a compound concentration of 20% or more)”.

As for `C=C(C)C(=O)[O-].C=CCOCC(=C)C(=O)[O-].C=CCOCC(=C)C(=O)[O-].[In+3]` [In(AMA)2(MAA)1], the “Solubility (film-forming method) Methanol” value in series [2] is “X-Δ”. Besides, the “Solubility (dissolution method) Toluene” value in series [1] is “◯◯ (Become uniform and transparent at a compound concentration of 20% or more)”.

For the compound `C=CCOCC(=C)C(=O)[O-].C=CCOCC(=C)C(=O)[O-].C=CCOCC(=C)C(=O)[O-].[In+3]` [In(AMA)3], in series [2], the “Solubility (film-forming method) Acetone” value is “X-Δ”, the “Solubility (film-forming method) Acetonitrile” value is “X-Δ”, the “Solubility (film-forming method) Ethyl acetate” value was “X-Δ” and the “Solubility (film-forming method) Methanol” value is “X-Δ”. The “Solubility (dissolution method) THF” value in series [1] was “◯◯ (Become uniform and transparent at a compound concentration of 20% or more)”.

In the case of `C=CCOCC(=C)C(=O)[O-].C=CCOCC(=C)C(=O)[O-].C=CCOCC(=C)C(=O)[O-].[La+3]` [La(AMA)3], the “Solubility (film-forming method) Water” value in series [2] is “X-Δ”. Further, in series [1], the “Solubility (dissolution method) THF” value is “◯◯ (Become uniform and transparent at a compound concentration of 20% or more)”; the “Solubility (dissolution method) Toluene” value was “◯ (Become uniform and transparent at a compound concentration of 10%)”.

For `C=CCOCC(=C)C(=O)[O-].C=CCOCC(=C)C(=O)[O-].[Mn+2]` [Mn(AMA)2], the “Solubility (film-forming method) Water” value in series [2] was “X-Δ”. In series [1], the “Solubility (dissolution method) Toluene” value is “◯◯ (Become uniform and transparent at a compound concentration of 20% or more)”.

`C=C(C)C(=O)[O-].C=CCOCC(=C)C(=O)[O-].[Ni+2]` [Ni(AMA)1(MAA)1]: in series [1], the “Solubility (dissolution method) Toluene” value was “◯◯ (Become uniform and transparent at a compound concentration of 20% or more)”.

For `C=C(C)COCC(=C)C(=O)[O-].C=C(C)COCC(=C)C(=O)[O-].[Zn+2]` [Zn(MAMA)2], the “Solubility (film-forming method) Water” value in series [2] is “X-Δ”. Further, the “Solubility (dissolution method) Toluene” value in series [1] is “◯◯ (Become uniform and transparent at a compound concentration of 20% or more)”.
